The subject of assay [1] is drug-resistant cell lines of Table 3. The experiment in a line: Cell line growth retardation assay, resistant cohort. The conditions noted are these: arithmetic mean of IC50s over the resistant cohort of Table 3, 6 days growth, read-out: AvgRes IC50. In kind it is cell-based, Human. The method in brief: (§1)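 Cell lines classed as MCL1-inhibition sensitive or resistant were seeded, rested 24 h, then exposed to 10–0.0032 μM compound for 6 days. Cells were counted by imaging; growth inhibition was the ratio of population doublings with vs without compound from a pre-treatment baseline. IC50 from curve fits, averaged per cohort.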

The target of a further assay is BCL2 (Homo sapiens, UniProt P10415). The experiment in a line: BCL2 affinity assay (competition binding, qPCR readout). The conditions noted are these: recombinant BCL2, 11-point 3-fold dilution series. The procedure: (§2) Recombinant MCL1, BCL2 and BCXL proteins were prepared in either an E. coli host derived from the BL21 strain or in HEK-293 cells. The recombinant proteins were subsequently tagged with DNA for qPCR detection. Streptavidin-coated magnetic beads were treated for 30 minutes at room temperature with the respective biotinylated peptide ligands for each recombinant protein to generate affinity resins for the assays. The liganded beads were blocked with excess biotin and washed with blocking buffer (SeaBlock (Pierce), 1% BSA, 0.05% Tween 20, 1 mM DTT) to remove unbound ligand and to reduce nonspecific binding. Binding reactions were assembled by combining recombinant protein, liganded affinity beads, and test compounds in 1× binding buffer (20% SeaBlock, 0.17×PBS, 0.05% Tween 20, 6 mM DTT). Test compounds were prepared as 111X stocks in 100% DMSO. The compounds were then diluted directly into the assays such that the final concentration of DMSO was 0.9%. The assay plates were incubated at room temperature with shaking for 1 hour and the affinity beads were washed with wash buffer (1×PBS, 0.05% Tween 20). The beads were then re-suspended in elution buffer (1×PBS, 0.05% Tween 20, 0.5 μM non-biotinylated affinity ligand) and incubated at room temperature with shaking for 30 minutes. The recombinant protein concentration in the eluates was measured by qPCR. Kds were determined using an 11-point 3-fold compound dilution series with three DMSO control points.
Background: Real-time PCR tracks product formation cycle by cycle.

In a further assay the target is MCL1 (Homo sapiens, UniProt Q07820). Description: MCL1 affinity assay (competition binding, qPCR readout). As to conditions: recombinant MCL1, 11-point 3-fold dilution series. Summed up: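 Competition binding: DNA-tagged recombinant protein (E. coli BL21-derived or HEK-293), biotinylated peptide ligand-loaded streptavidin beads and compound incubated 1 hour at room temperature, 0.9% DMSO final. Bound protein eluted with 0.5 μM non-biotinylated ligand and quantified by qPCR; Kd from 11-point 3-fold dilution series.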

In assay [2] the test system is drug-sensitive cell lines of Table 3. The experiment in a line: Cell line growth retardation assay, sensitive cohort. As to conditions: for IC50: arithmetic mean of IC50s over the sensitive cohort of Table 3, 6 days growth, read-out: AvgSen IC50; for Fold Diff: average IC50 of resistant cohort divided by average IC50 of sensitive cohort. In kind it is cell-based, Human. Summed up: as §1

The target in a further assay is BCLXL (Homo sapiens, UniProt Q07817). The experiment in a line: BCLXL affinity assay (competition binding, qPCR readout). The conditions noted are these: recombinant BCLXL, 11-point 3-fold dilution series. The procedure:
as §2

The structures appear in SMILES notation. Like-named read-outs stand apart in the source and are kept apart here.

The term IC50 denotes the concentration that inhibits the measured activity by half. One may read the Kd as the constant that tells how readily two partners part at equilibrium.

BCLXL, sequence (Q07817 whole entry): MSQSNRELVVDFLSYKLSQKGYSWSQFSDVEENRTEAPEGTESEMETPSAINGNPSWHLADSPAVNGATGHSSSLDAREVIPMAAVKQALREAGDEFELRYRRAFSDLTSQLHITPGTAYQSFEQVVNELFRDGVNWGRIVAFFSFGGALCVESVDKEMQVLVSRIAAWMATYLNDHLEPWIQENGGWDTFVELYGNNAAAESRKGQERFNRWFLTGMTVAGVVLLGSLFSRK
BCL2, sequence (P10415 whole entry): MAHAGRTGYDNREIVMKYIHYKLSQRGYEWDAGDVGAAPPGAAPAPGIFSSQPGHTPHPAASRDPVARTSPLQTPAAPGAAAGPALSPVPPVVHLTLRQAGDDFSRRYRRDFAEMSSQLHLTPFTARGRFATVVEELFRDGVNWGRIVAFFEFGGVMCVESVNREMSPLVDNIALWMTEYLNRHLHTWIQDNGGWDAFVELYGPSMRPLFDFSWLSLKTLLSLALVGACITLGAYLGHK
MCL1, sequence (Q07820 whole entry): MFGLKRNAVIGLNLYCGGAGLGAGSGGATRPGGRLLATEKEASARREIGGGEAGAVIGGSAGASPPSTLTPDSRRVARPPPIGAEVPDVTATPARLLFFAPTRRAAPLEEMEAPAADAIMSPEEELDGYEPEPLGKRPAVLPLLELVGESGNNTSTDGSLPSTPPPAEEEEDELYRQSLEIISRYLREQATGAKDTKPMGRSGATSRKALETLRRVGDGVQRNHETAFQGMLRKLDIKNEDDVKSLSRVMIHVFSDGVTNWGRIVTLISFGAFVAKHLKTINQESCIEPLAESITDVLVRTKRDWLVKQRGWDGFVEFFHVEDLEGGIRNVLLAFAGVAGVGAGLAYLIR

`Cc1c(-c2c(-c3ccc4c(ccn4C)c3)ncc3snc(O[C@H](Cc4ccccc4OCc4ccnn4CC(F)(F)F)C(=O)O)c23)ccc(OCCN2CCN(C)CC2)c1Cl` (atropisomer, axis not shown) [Compound 10]: the IC50 is greater than 5000 nM in assay [1] (Homo sapiens, 144 h) and greater than 5000 nM in assay [2] (Homo sapiens, 144 h). Moreover, the equilibrium dissociation constant (Kd) on BCL2, on MCL1 and at BCLXL was greater than 1500 nM in each case. The “Fold Diff” value in assay [2] is reported as “− (“−” represents a fold difference less than 10)”.
As to `Cc1c(-c2c(-c3ccccn3)ncc3snc(O[C@H](Cc4ccccc4OCc4ccnn4CC(F)(F)F)C(=O)O)c23)ccc(OCCN2CCN(C)CC2)c1Cl` (atropisomer, axis not shown) [Compound 52], the 50% inhibitory concentration (IC50) is greater than 5000 nM in assay [1] (Homo sapiens, 144 h) and greater than 5000 nM in assay [2] (Homo sapiens, 144 h). Further, the figures for the Kd on BCL2, at MCL1 and on BCLXL were greater than 1500 nM, 501 to 1500 nM and greater than 1500 nM, respectively. Further, the “Fold Diff” value in assay [2] is “− (“−” represents a fold difference less than 10)”.
On to `Cc1c(-c2c(-c3ccc(F)s3)ncc3snc(O[C@H](Cc4ccccc4OCc4ccnn4CC(F)(F)F)C(=O)O)c23)ccc(OCCN2CCN(C)CC2)c1Cl` (single isomer, unassigned) [Compound 2], for which the IC50 in assay [1] is greater than 5000 nM; in assay [2], 1000 to 5000 nM. Besides, the Kd at BCL2 is greater than 1500 nM; on MCL1 it was 501 to 1500 nM; on BCLXL, greater than 1500 nM. Further, in assay [2], the “Fold Diff” value is on record as “− (“−” represents a fold difference less than 10)”.
On to `COc1cccc(-c2ncc3snc(O[C@H](Cc4ccccc4OCc4ccnc(-c5ccccc5OC)n4)C(=O)O)c3c2-c2ccc(OCCN3CCOCC3)c(Cl)c2C)c1` (single isomer, unassigned) [Compound 42], for which the IC50 in assay [1] (Homo sapiens, 144 h) was greater than 5000 nM; in assay [2] (Homo sapiens, 144 h) it was 1000 to 5000 nM. Moreover, the Kd on BCL2 was greater than 1500 nM; at MCL1, no more than 100 nM; at BCLXL, greater than 1500 nM. For the same compound, in assay [2], the “Fold Diff” value was “− (“−” represents a fold difference less than 10)”.
Consider `Cc1c(-c2c(-c3ccc(F)cc3)ncc3snc(O[C@H](Cc4ccccc4OCc4ccnn4CC(F)(F)F)C(=O)O)c23)ccc(OCCN2CCN(C)CC2)c1Cl` (single isomer, unassigned) [Compound 6], for which the half-inhibitory concentration (IC50) was greater than 5000 nM in assay [1] (Homo sapiens, 144 h) and 1000 to 5000 nM in assay [2]. The Kd at BCL2 is greater than 1500 nM; at MCL1 it was 101 to 500 nM; at BCLXL it was greater than 1500 nM. For the same compound, in assay [2], the “Fold Diff” value is “− (“−” represents a fold difference less than 10)”.
As to `Cc1c(-c2c(-c3cccc4c3NC(=O)C4)ncc3snc(O[C@H](Cc4ccccc4OCc4ccnn4CC(F)(F)F)C(=O)O)c23)ccc(OCCN2CCN(C)CC2)c1Cl` (atropisomer, axis not shown) [Compound 12], the IC50 in assay [1] (Homo sapiens, 144 h) was greater than 5000 nM; in assay [2] (Homo sapiens, 144 h) it was greater than 5000 nM. Moreover, the Kd at BCL2, at MCL1 and at BCLXL was greater than 1500 nM throughout. Moreover, in assay [2], the “Fold Diff” value is “− (“−” represents a fold difference less than 10)”.
As for `COCCOc1ccc(-c2c(-c3cccc(OC)c3)ncc3snc(O[C@H](Cc4ccccc4OCc4ccnc(-c5ccccc5OC)n4)C(=O)O)c23)c(C)c1Cl` (atropisomer, axis not shown) [Compound 44], the IC50 was greater than 5000 nM in assay [1] (Homo sapiens, 144 h) and greater than 5000 nM in assay [2] (Homo sapiens, 144 h). For the same compound, the dissociation constant Kd on BCL2 is greater than 1500 nM; on MCL1 it was no more than 100 nM; at BCLXL, greater than 1500 nM. In assay [2], the “Fold Diff” value was “− (“−” represents a fold difference less than 10)”.
On to `Cc1c(-c2c(-c3cccc4ccsc34)ncc3snc(O[C@H](Cc4ccccc4OCc4ccnn4CC(F)(F)F)C(=O)O)c23)ccc(OCCN2CCN(C)CC2)c1Cl` (atropisomer, axis not shown) [Compound 24], for which the concentration for half-maximal inhibition (IC50) was greater than 5000 nM in assay [1] (Homo sapiens, 144 h) and 1000 to 5000 nM in assay [2] (Homo sapiens, 144 h). Moreover, the Kd on BCL2, on MCL1 and on BCLXL was greater than 1500 nM in each case. Also, in assay [2], the “Fold Diff” value is recorded as “− (“−” represents a fold difference less than 10)”.

For the origin of these results see patent US20230116602A1, “MCL1 INHIBITORS AND USES THEREOF” (California Institute of Technology, priority 2019, published 2023).
